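At the GI50, growth is halved. TGI: concentration producing complete growth inhibition.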
Assays:
Test in all cases: DTP human tumour cell line panel, 384-well format
[1] = test system: BT-549 breast
[2] = test system: SK-MEL-28 melanoma
[3] = test system: MOLT-4 leukemia
[4] = test system: EKVX NSCLC
[5] = test system: NCI-H322M lung
[6] = test system: HT29 colon
[7] = test system: T-47D breast
[8] = test system: HL-60(TB) leukemia
[9] = test system: TK-10 renal
[10] = test system: A549 NSCLC
[11] = test system: MDA-MB-435 melanoma
[12] = test system: HCC-2998 colon
[13] = test system: OVCAR-8 ovarian
[14] = test system: M14 melanoma
[15] = test system: OVCAR-3 ovarian
[16] = test system: SK-MEL-5 melanoma
[17] = test system: SN12C renal
[18] = test system: HCT-15 colon
[19] = test system: UACC-62 melanoma
[20] = test system: SNB-75 CNS
[21] = test system: U251 glioblastoma
[22] = test system: SNB-19 CNS
[23] = test system: RPMI-8226 leukemia
[24] = test system: SK-OV-3 ovarian
[25] = test system: UACC-257 melanoma
[26] = test system: MDA-MB-231 breast
[27] = test system: CCRF-CEM leukemia
[28] = test system: SF-539 CNS
[29] = test system: HS 578T breast
[30] = test system: HOP-92 NSCLC
[31] = test system: SF-268 CNS
[32] = test system: PC-3 prostate
[33] = test system: DU-145 prostate
[34] = test system: SR leukemia
[35] = test system: MALME-3M melanoma
[36] = test system: NCI-H460 NSCLC
[37] = test system: IGROV1 ovarian
[38] = test system: HOP-62 NSCLC
[39] = test system: NCI-H23 lung
[40] = test system: NCI-H226 lung
[41] = test system: RXF 393 renal
[42] = test system: KM12 colon

## COc1ccc(F)c(F)c1C(=O)c1cnc(NC2CCN(S(C)(=O)=O)CC2)nc1N
[1]
  GI50: 44.1 nM
  TGI: 434 nM
[2]
  GI50: 161 nM
  TGI: 1580 nM
[3]
  GI50: 91.2 nM
  TGI: 396 nM
[4]
  GI50: 424 nM
  TGI: 3160 nM
[5]
  GI50: 215 nM
  TGI: 602 nM
[6]
  GI50: 206 nM
  TGI: 2050 nM
[7]
  GI50: 306 nM
  TGI: > 100000 nM
[8]
  GI50: 15.8 nM
  TGI: 125 nM
[9]
  GI50: 304 nM
  TGI: > 100000 nM
[10]
  GI50: 169 nM
  TGI: > 100000 nM
[11]
  GI50: 251 nM
  TGI: 1600 nM
[12]
  GI50: 289 nM
  TGI: 1910 nM
[13]
  GI50: 144 nM
  TGI: 917 nM
[14]
  GI50: 346 nM
  TGI: 1640 nM
[15]
  GI50: 305 nM
  TGI: 1450 nM
[16]
  GI50: 82 nM
  TGI: 609 nM
[17]
  GI50: 139 nM
  TGI: 681 nM
[18]
  GI50: 187 nM
  TGI: > 100000 nM
[19]
  GI50: 138 nM
  TGI: 453 nM
[20]
  GI50: 86.4 nM
  TGI: 1730 nM
[21]
  GI50: 278 nM
  TGI: > 100000 nM
[22]
  GI50: 348 nM
  TGI: > 100000 nM
[23]
  GI50: 20.9 nM
  TGI: 124 nM
[24]
  GI50: 1030 nM
  TGI: > 100000 nM
[25]
  GI50: 1030 nM
  TGI: 2620 nM
[26]
  GI50: 201 nM
  TGI: 3700 nM
[27]
  GI50: 72 nM
  TGI: 234 nM
[28]
  GI50: 137 nM
  TGI: 501 nM
[29]
  GI50: 206 nM
  TGI: 492 nM
[30]
  GI50: 310 nM
  TGI: > 100000 nM
[31]
  GI50: 129 nM
  TGI: 361 nM
[32]
  GI50: 284 nM
  TGI: 2130 nM
[33]
  GI50: 211 nM
  TGI: 977 nM
[34]
  GI50: 15.7 nM
  TGI: 39 nM
[35]
  GI50: 379 nM
  TGI: 2000 nM
[36]
  GI50: 30.2 nM
  TGI: 162 nM
[37]
  GI50: 222 nM
  TGI: > 100000 nM
[38]
  GI50: 135 nM
  TGI: 466 nM
[39]
  GI50: 140 nM
  TGI: 774 nM
[40]
  GI50: 164 nM
  TGI: 753 nM
[41]
  GI50: 159 nM
  TGI: 345 nM
[42]
  GI50: 108 nM
  TGI: 456 nM
